Source: patent US8946478B2, “Benzamide derivative with anticancer activity and preparation method and use thereof” (Zhejiang Hisun Pharmaceutical Co., Ltd., priority 2010, dated 2015)

Key:
[1] = tested on: human ovarian cancer cell strain OVCAR-8; assay: In vitro SRB tumor cell growth inhibition (GI50); assay type: cell-based; settings: OVCAR-8 cells
Experimental: (§1) Human colon cancer cell strains (Colo205 and HCT-116), human breast cancer cell strains (MCF-7 and MDA-MB435), human lung cancer cell strains (A549, 95D and NCI460), human ovarian cancer cell strains (OVCAR-5, OVCAR-8, HO8910 and SKOV-3), human leukemia (HL-60 and K562), human prostate cancer (DU145 and BXPC-3), human uterine cancer (Hela), human pancreatic cancer (PANC-1), human hepatoma (HepG 2) were all obtained from ATCC. Colo205, HL-60, K562 cells were cultured in RPMI 1640 containing 2 mM/L glutamine, 10% FBS, 1.0 mM sodium pyruvate. HCT-116, MCF-7, A549, 95D, HO8910, NCI460, OVCAR-5, OVCAR-8, DU145, BXPC-3, Hela, PANC-1, HepG2 cells were cultured in DMEM containing 2 mM/L glutamine, 10% FBS. MDA-MB435 cells were cultured in L-15 containing 2 mM/L glutamine, 10% FBS. SKOV-3 cells were cultured in McCoy's containing 2 mM/L glutamine, 10% FBS. Colo205, HL-60 and K562 cells were seeded in 96-well plates, 150 μL/well and 8000 cells/well, and the 96-well plates were pre-incubated in an incubator at 37° C. with 5% CO2, 100% relative humidity for 24 hours. HCT-116, MCF-7, NCI460, OVCAR-5, OVCAR-8, Hela, HepG 2 and MDA-MB435 cells were seeded in 96-well plates, 5000 cells/well; A549, 95D, HO8910, DU145, BXPC-3, PANC-1 and SKOV-3 cells were seeded in 96-well plates, 10000 cells/well, and the 96-well plates were pre-incubated in an incubator at 37° C. with 5% CO2, 100% relative humidity for 24 hours, to allow the cells to adhere.
(§2) 50 μL of pre-cooled 50% (mass/volume) TCA was added into the time zero control wells for each cell strain to fix the cells. To other wells, 50 μL of various concentrations of compounds were added, and maintained for 48 h, wherein each drug concentration was in triplicate, and there were blank control wells (cell culture medium without cells), drug-free control wells (with no drugs but the same volume of complete medium) and positive drug BSI-201 control wells, and the plates were incubated in an incubator at 37° C. with 5% CO2, full humidity (100% relative humidity) for 48 hours
(§3) 50 μL pre-cooled 50% (mass/volume) TCA was added onto the surface of the culture medium to fix the cells, which was then placed at 4° C. for 1 h. The supernatant was removed and each well was washed with deionized water for 5 times to remove TCA, serum proteins, etc. After dried in the air, about 100 μL enough amount of 0.4% SRB (formulated with 1% acetic acid) was added into each well, and was placed at room temperature for 20 to 30 min. Liquid in each well was discarded and each well was rapidly washed with 1% acetic acid for five times, to remove unbound dye until the unbound dye was completely rinsed clean. After dried in the air until the moisture was invisible, each well was added 200 μL Tris base to dissolve, shaken on a plate oscillator for 5 min or mixed by beating up and down with a pipette tip, and then measured on the multi-function instruction (M5 Detection System, MD Group Ltd.) with a detection wavelength of 515 nm, zero adjusted with 690 nm blank control.
(§4) The dose-response curve was plotted by XL-fit to determine the GI50 value.

[2] = tested on: human colon cancer cell strain Colo205; assay: In vitro SRB tumor cell growth inhibition (GI50); assay type: cell-based; settings: Colo 205 cells, 48 h
Experimental: as §1, §2, §3, §4

[3] = tested on: human lung cancer cell strain A549; assay: In vitro SRB tumor cell growth inhibition (GI50); assay type: cell-based; settings: A549 cells, 48 h
Experimental: as §1, §2, §3, §4

[4] = tested on: human uterine cancer Hela; assay: In vitro SRB tumor cell growth inhibition (GI50); assay type: cell-based; settings: 48 h, Hela cells
Experimental: as §1, §2, §3, §4

[5] = tested on: human lung cancer cell strain NCI-460; assay: In vitro SRB tumor cell growth inhibition (GI50); assay type: cell-based; settings: NCI-460 cells
Experimental: as §1, §2, §3, §4

[6] = tested on: human prostate cancer DU145; assay: In vitro SRB tumor cell growth inhibition (GI50); assay type: cell-based; settings: DU145 cells
Experimental: as §1, §2, §3, §4

[7] = tested on: human ovarian cancer cell strain SKOV-3; assay: In vitro SRB tumor cell growth inhibition (GI50); assay type: cell-based; settings: SK-OV-3, SKOV-3 cells, 48 h
Experimental: as §1, §2, §3, §4

[8] = tested on: human breast cancer cell strain MDA-MB435; assay: In vitro SRB tumor cell growth inhibition (GI50); assay type: cell-based; settings: Homo sapiens, MDA-MB-435, 48 h, MDA-MB435 cells
Experimental: as §1, §2, §3, §4

[9] = tested on: human prostate cancer BXPC-3; assay: In vitro SRB tumor cell growth inhibition (GI50); assay type: cell-based; settings: BXPC-3 cells, 48 h
Experimental: as §1, §2, §3, §4

[10] = tested on: human ovarian cancer cell strain OVCAR-5; assay: In vitro SRB tumor cell growth inhibition (GI50); assay type: cell-based; settings: OVCAR-5 cells, 48 h
Experimental: as §1, §2, §3, §4

human leukemia HL-60 = assay: In vitro SRB tumor cell growth inhibition (GI50); assay type: cell-based; settings: HL-60 cells
Experimental: as §1, §2, §3, §4

[11] = tested on: human breast cancer cell strain MCF-7; assay: In vitro SRB tumor cell growth inhibition (GI50); assay type: cell-based; settings: MCF-7 cells
Experimental: as §1, §2, §3, §4

[12] = tested on: human ovarian cancer cell strain HO8910; assay: In vitro SRB tumor cell growth inhibition (GI50); assay type: cell-based; settings: HO-8910, HO8910 cells, 48 h
Experimental: as §1, §2, §3, §4

human hepatoma HepG 2 = assay: In vitro SRB tumor cell growth inhibition (GI50); assay type: cell-based; settings: HepG2, HepG 2 cells, 48 h
Experimental: as §1, §2, §3, §4

[13] = tested on: human pancreatic cancer PANC-1; assay: In vitro SRB tumor cell growth inhibition (GI50); assay type: cell-based; settings: PANC-1 cells
Experimental: as §1, §2, §3, §4

human leukemia K562 = assay: In vitro SRB tumor cell growth inhibition (GI50); assay type: cell-based; settings: K562 cells
Experimental: as §1, §2, §3, §4

[14] = tested on: human colon cancer cell strain HCT-116; assay: In vitro SRB tumor cell growth inhibition (GI50); assay type: cell-based; settings: HCT-116 cells
Experimental: as §1, §2, §3, §4

[15] = tested on: human lung cancer cell strain 95D; assay: In vitro SRB tumor cell growth inhibition (GI50); assay type: cell-based; settings: 48 h, 95D cells
Experimental: as §1, §2, §3, §4

18 tumor cell strains = assay: In vitro efficacy screening, summary over the tumor cell strains; assay type: cell-based, human; settings: in vitro screening; for inhibitory effects on tumor cell proliferation (in words): BSI-201 as positive drug
Experimental: as §1, §2, §3, §4

Row | SMILES | GI50 [2] | GI50 [3] | GI50 ([4]; Homo sapiens, HeLa) | GI50 ([6]; Homo sapiens, DU-145, 48 h) | GI50 [7] | GI50 [8] | GI50 [9] | GI50 [10] | GI50 (human leukemia HL-60; Homo sapiens, HL-60, 48 h) | GI50 ([11]; Homo sapiens, MCF7, 48 h) | GI50 [12] | GI50 (human hepatoma HepG 2) | GI50 ([13]; Homo sapiens, PANC-1, 48 h) | GI50 (human leukemia K562; Homo sapiens, K562, 48 h) | GI50 ([14]; Homo sapiens, HCT-116, 48 h) | GI50 ([15]; Homo sapiens, 95-D) | GI50 ([1]; Homo sapiens, OVCAR-8, 48 h) | GI50 ([5]; Homo sapiens, NCI-460, 48 h) | efficacy in inhibition of tumor cell proliferation, graded in words against I-1 (18 tumor cell strains) | inhibitory effects on tumor cell proliferation (in words) (18 tumor cell strains) | other results
1 | C#Cc1ccc(C(=O)NC(=O)OCC(C)C)cc1[N+](=O)[O-] [Compound I-7, N-isobutoxycarbonyl-4-ethynyl-3-nitrobenzamide] | 3.15 µM |  |  |  |  | 9.67 µM |  |  |  |  |  |  |  | 10.1 µM |  |  |  |  | good effects on inhibition of tumor cell proliferation | have inhibitory effects on tumor cell proliferation | 
2 | C#Cc1ccc(C(=O)NC(=O)OCC)cc1[N+](=O)[O-] [Compound I-3, N-ethoxycarbonyl-4-ethynyl-3-nitrobenzamide] | 4.32 µM | 25 µM | 9.9 µM | 3.79 µM | 15 µM | 4.16 µM | 7.5 µM |  | 3.2 µM | 6.81 µM | 4.03 µM | 12 µM | 2.48 µM | 7.03 µM | 5.6 µM | 4.38 µM | 16.3 µM | 37.3 µM | slightly lower than that of I-1 | have inhibitory effects on tumor cell proliferation | 
3 | C#Cc1ccc(C(=O)NC(=O)OC(C)C)cc1[N+](=O)[O-] [Compound I-6, N-isopropoxycarbonyl-4-ethynyl-3-nitrobenzamide] | 9.09 µM |  |  |  |  |  |  |  |  |  |  |  |  | 20.2 µM |  |  |  |  | good effects on inhibition of tumor cell proliferation | have inhibitory effects on tumor cell proliferation | 
4 | C#Cc1ccc(C(=O)NC(=O)OC)cc1[N+](=O)[O-] [Compound I-2, N-methoxycarbonyl-4-ethynyl-3-nitrobenzamide] | 7.03 µM | 8.04 µM | 7.1 µM | 3.31 µM | 3.81 µM | 11.7 µM | 7.42 µM | 4.24 µM | 2.02 µM | 2.08 µM | 3.44 µM | 11.3 µM | 13.7 µM | 2.8 µM |  | 3.62 µM | 14.1 µM | 33.8 µM | slightly lower than that of I-1 | have inhibitory effects on tumor cell proliferation | 

The next lines start with results.

Row | GI50 [2] | GI50 [3] | GI50 ([4]; Homo sapiens, HeLa) | GI50 ([6]; Homo sapiens, DU-145, 48 h) | GI50 [7] | GI50 [8] | GI50 [9] | GI50 [10] | GI50 (human leukemia HL-60; Homo sapiens, HL-60, 48 h) | GI50 ([11]; Homo sapiens, MCF7, 48 h) | GI50 [12] | GI50 (human hepatoma HepG 2) | GI50 ([13]; Homo sapiens, PANC-1, 48 h) | GI50 (human leukemia K562; Homo sapiens, K562, 48 h) | GI50 ([14]; Homo sapiens, HCT-116, 48 h) | GI50 ([15]; Homo sapiens, 95-D) | GI50 ([1]; Homo sapiens, OVCAR-8, 48 h) | SMILES | GI50 ([5]; Homo sapiens, NCI-460, 48 h) | efficacy in inhibition of tumor cell proliferation, graded in words against I-1 (18 tumor cell strains) | inhibitory effects on tumor cell proliferation (in words) (18 tumor cell strains) | other results
5 | 10.9 µM | 30.1 µM | 10.1 µM | 6.17 µM | 9.77 µM | 14.5 µM | 10.2 µM | 35.6 µM | 2.47 µM | 21.5 µM | 10.2 µM | 7.12 µM | 24.3 µM | 8.03 µM | 8.62 µM | 25.8 µM |  | C#Cc1ccc(C(=O)N2CCN(C)CC2)cc1[N+](=O)[O-] [Compound I-24, (4-ethynyl-3-nitrophenyl)(4-methylpiperazin-1-yl)ketone] | 31.1 µM | slightly lower than that of I-1 | have inhibitory effects on tumor cell proliferation | GI50 ([1]; 48 h): 8.92 µM
6 |  | 130 µM |  |  | 105 µM |  |  |  |  |  |  |  |  |  |  |  |  | CC#Cc1ccc(C(=O)NC)cc1[N+](=O)[O-] [Compound I-26, N-methyl-4-(1-propynyl)-3-nitrobenzamide] |  |  | have inhibitory effects on tumor cell proliferation | 
7 | 3.21 µM | 12.2 µM | 4.43 µM | 2.99 µM | 8.4 µM | 2.76 µM | 4.79 µM | 16.1 µM | 2.62 µM | 10.6 µM | 3.34 µM | 5.85 µM | 12.4 µM | 2.59 µM | 5.06 µM | 10.3 µM | 4.6 µM | C#Cc1ccc(C(=O)NCC)cc1[N+](=O)[O-] [Compound I-17, N-ethyl-4-ethynyl-3-nitrobenzamide] | 14 µM | slightly lower than that of I-1 | have inhibitory effects on tumor cell proliferation | 
8 |  | 56.8 µM |  |  | 31.3 µM |  |  |  |  |  |  |  |  |  |  |  |  | C#Cc1ccc(C(=O)N2CCNCC2)cc1[N+](=O)[O-] [Compound I-23, (4-ethynyl-3-nitrophenyl)(piperazin-1-yl)ketone] |  | slightly lower than that of I-1 | have inhibitory effects on tumor cell proliferation | GI50 [4]: 11.2 µM; GI50 ([5]; 48 h): 25.6 µM; GI50 ([6]; 48 h): 3.44 µM; GI50 (human leukemia HL-60; 48 h): 12.3 µM; GI50 ([11]; 48 h): 9.24 µM; GI50 ([13]; 48 h): 23.8 µM; GI50 (human leukemia K562; 48 h): 16.2 µM; GI50 ([14]; 48 h): 12.4 µM; GI50 [15]: 10.9 µM
9 |  |  | 14 µM | 5.84 µM |  | 3.06 µM |  |  | 9.27 µM | 5.97 µM |  |  | 18.1 µM | 15.3 µM | 10.3 µM | 10.9 µM | 10.3 µM | C#Cc1ccc(C(=O)N2CCNCC2)cc1[N+](=O)[O-].Cl [Compound I-30, (4-ethynyl-3-nitrophenyl)(piperazin-1-yl)ketone hydrochloride] | 19.5 µM | slightly lower than that of I-1 | have inhibitory effects on tumor cell proliferation | 
